One assay has as its system velvetleaf. The experiment in a line: Test A velvetleaf. The assay is classed as in vivo, Abutilon theophrasti. To be noted: 0 to 10 scale where 0 is no effect and 10 is complete control. As to the method:
(§1) Seeds of barnyardgrass (Echinochloa crus-galli), crabgrass (Digitaria spp.), morningglory (Ipomoea spp.), and velvetleaf (Abutilon theophrasti) were planted into a sandy loam soil and treated preemergence by soil drench with test chemicals formulated in a non-phytotoxic solvent mixture which includes a surfactant At the same time, these crop and weed species were also treated postemergence sprayed to runoff, with test chemicals formulated in the same manner.
(§2) Plants ranged in height from two to eighteen cm and were in the one to two leaf stage for the postemergence treatment. Treated plants and untreated controls were maintained in a greenhouse for approximately eleven days, after which all treated plants were compared to untreated controls and visually evaluated for injury. Plant response ratings, summarized in Table A, are based on a 0 to 10 scale where 0 is no effect and 10 is complete control.

Another assay has as its system crabgrass. In words: Test A crabgrass. The assay is classed as in vivo, Digitaria spp. To be noted: 0 to 10 scale where 0 is no effect and 10 is complete control. As to the method:
as §1, §2

The next assay concerns morningglory. In words: Test A morningglory. The assay is classed as in vivo, Ipomoea spp. The settings on record: 0 to 10 scale where 0 is no effect and 10 is complete control. The method in brief: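 Injury scored visually after about eleven greenhouse days against untreated plants, 0 = no effect, 10 = complete control. Compounds, formulated in surfactant-containing non-phytotoxic solvent, were applied as preemergence soil drench to sandy loam plantings and as postemergence runoff spray at the 1–2 leaf stage.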

The next assay relates to tall mallow. In words: Test D tall mallow. The assay is classed as in vivo, Malva sylvestris. To be noted: Preemergence, 0 to 100 scale; for Tall Mallow plant response rating: 0 no injury, 100 complete control. The method in brief:
(§3)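 Each weed species is planted in its own pot or compartment; preemergence doses go on the sandy loam surface within a day. The formulation is a surfactant-containing, non-phytotoxic solvent blend. Ratings come from visual comparison with untreated controls 14 to 21 days later, where 100 means complete control.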

Another assay concerns Green foxtail. In words: Test D green foxtail. The assay is classed as in vivo. To be noted: Preemergence, 0 to 100 scale. The essentials:
as §3

The subject of another assay is common ragweed. In words: Test D common ragweed. The assay is classed as in vivo, Ambrosia elatior. The settings on record: Preemergence, 0 to 100 scale. The essentials: as §3
The test system of a further assay is goosegrass. In words: Test D goosegrass. The settings on record: Preemergence, 0 to 100 scale. The assay is classed as in vivo, Eleusine indica. The essentials: as §3
The test system of the next assay is dallisgrass. In words: Test D dallisgrass. The assay is classed as in vivo, Paspalum dilatatum. The settings on record: Preemergence, 0 to 100 scale. The essentials: as §3
The next assay deals with large crabgrass. In words: Test D large crabgrass. The assay is classed as in vivo, Digitaria sanguinalis. To be noted: Preemergence, 0 to 100 scale. The essentials: as §3
A further assay concerns Alexandergrass. The experiment in a line: Test D Alexandergrass. The settings on record: Preemergence, 0 to 100 scale. The assay is classed as in vivo, Brachiaria plantaginea. The essentials:
as §3

Another assay relates to surinam grass. The experiment in a line: Test D surinam grass. The assay is classed as in vivo, Brachiaria decumbens. To be noted: Preemergence, 0 to 100 scale; for Surinam grass plant response rating: 0 no injury, 100 complete control. The essentials: as §3
The next assay deals with purple nutsedge. In words: Test D purple nutsedge. The settings on record: Preemergence, 0 to 100 scale; for Purple nutsedge plant response rating: 0 no injury, 100 complete control. The assay is classed as in vivo, Cyperus rotundus. The essentials: as §3
For a further assay, the system named is sandbur. In words: Test D sandbur. The assay is classed as in vivo, Cenchrus echinatus. The settings on record: Preemergence, 0 to 100 scale; for Sandbur plant response rating: 0 no injury, 100 complete control. The essentials:
as §3

The next assay deals with common pursiane. In words: Test D common purslane. The assay is classed as in vivo, Portulaca oleracea. The essentials: as §3
The test system of a further assay is guineagrass. In words: Test D guineagrass. The assay is classed as in vivo, Panicum maximum. To be noted: Preemergence, 0 to 100 scale. The method in brief:
as §3

The subject of another assay is common groundsel. The experiment in a line: Test D common groundsel. The assay is classed as in vivo, Senecio vulgaris. The settings on record: Preemergence, 0 to 100 scale. The essentials: as §3
Another assay relates to Spanishneedles. In words: Test D Spanishneedles. The assay is classed as in vivo, Bidens bipinnata. The settings on record: Preemergence, 0 to 100 scale; for Spanishneedles plant response rating: 0 no injury, 100 complete control. The method in brief: as §3
In another assay the test system is pitted morningglory. The experiment in a line: Test D pitted morningglory. The assay is classed as in vivo, Ipomoea lacunosa. To be noted: Preemergence, 0 to 100 scale. The method in brief: as §3
[1] abbreviates: Rate 64 g/ha, 0 no injury, 100 complete control.
[2] abbreviates: Rate 125 g/ha, 0 no injury, 100 complete control.

For the compound `Cc1cccc(Cl)c1-n1c(=O)on(C(=O)N(c2ccc(F)cc2)C(C)C)c1=O` [Compound 53], the “Plant response rating, Velvetleaf” value in the assay on velvetleaf (Postemergence, Rate 1000 g/ha) was 1; with velvetleaf (Pre-emergence, Rate 2000 g/ha) it was 0. In addition, the “Plant response rating, Crabgrass” value was found to be 6 with crabgrass (Postemergence, Rate 1000 g/ha) and 9 in the assay with crabgrass (Pre-emergence, Rate 2000 g/ha). Also, the “Plant response rating, Morningglory” value in the assay with morningglory (Postemergence, Rate 1000 g/ha) was 0; in the assay on morningglory (Pre-emergence, Rate 2000 g/ha) it was 0.

For `CCc1cccc(C)c1-n1c(=O)on(C(=O)N(c2ccc(F)cc2)C(C)C)c1=O` [Compound 52], the “Plant response rating, Velvetleaf” value is 1 in the assay on velvetleaf (Postemergence, Rate 1000 g/ha) and 0 in the assay with velvetleaf (Pre-emergence, Rate 2000 g/ha). Besides, the “Plant response rating, Crabgrass” value in the assay on crabgrass (Postemergence, Rate 1000 g/ha) stood at 8; in the assay on crabgrass (Pre-emergence, Rate 2000 g/ha), 10. Further, the “Plant response rating, Morningglory” value stood at 1 in the assay on morningglory (Postemergence, Rate 1000 g/ha) and 0 in the assay with morningglory (Pre-emergence, Rate 2000 g/ha).

Take `CCn1c(=O)on(C(=O)N(c2ccccc2)C(C)C)c1=O` [Compound 117]: the figures for the “Tall Mallow plant response rating” value in the assay with tall mallow (Rate 64 g/ha) and with tall mallow (Rate 125 g/ha) were 40 and 65, respectively. Further, in the assay on tall mallow (Rate 500 g/ha), the “Plant response rating, Tall Mallow” value is on record as 100. Moreover, the “Green foxtail plant response rating” value in the assay on Green foxtail (setting [1]) and in the assay with Green foxtail (setting [2]) was 100 in each case. The “Plant response rating, Green foxtail” value with Green foxtail (setting [1]), in the assay on Green foxtail (setting [2]) and in the assay with Green foxtail (Rate 500 g/ha) was 100 throughout. The “Plant response rating, C. ragweed” value is reported as 0 in the assay on common ragweed (setting [1]), 0 in the assay on common ragweed (setting [2]) and 65 in the assay on common ragweed (Rate 500 g/ha). Moreover, the “Plant response rating, Goosegrass” value with goosegrass (setting [1]) turned out to be 85; with goosegrass (setting [2]), 100; in the assay with goosegrass (Rate 500 g/ha), 100. Further, the “Plant response rating, Dallisgrass” value in the assay with dallisgrass (setting [1]) was determined as 85; with dallisgrass (setting [2]), 95; with dallisgrass (Rate 500 g/ha), 100. The “Plant response rating Large crabgrass” value is on record as 98 in the assay with large crabgrass (setting [1]), 98 with large crabgrass (setting [2]) and 100 with large crabgrass (Rate 500 g/ha). For the same compound, the figures for the “Plant response rating, Alexandergrass” value with Alexandergrass (setting [1]), in the assay on Alexandergrass (setting [2]) and in the assay with Alexandergrass (Rate 500 g/ha) were 90, 90 and 98, respectively. Further, the figures for the “Surinam grass plant response rating” value with surinam grass (Rate 64 g/ha) and with surinam grass (Rate 125 g/ha) were 80 and 100, respectively. The “Plant response rating, Surinam grass” value in the assay on surinam grass (Rate 500 g/ha) was 100. Further, the “Purple nutsedge plant response rating” value in the assay on purple nutsedge (Rate 64 g/ha) and with purple nutsedge (Rate 125 g/ha) was 0 each time. Besides, the “Plant response rating, Purple nutsedge” value with purple nutsedge (Rate 500 g/ha) is on record as 100. Moreover, the “Sandbur plant response rating” value in the assay with sandbur (Rate 64 g/ha) and with sandbur (Rate 125 g/ha) was 0 in each case. The “Plant response rating, Sandbur” value in the assay on sandbur (Rate 500 g/ha) was 100. Further, the “Plant response rating, C. purslane” value in the assay with common pursiane (Rate 64 g/ha, Preemergence; 0 to 100 scale, 0 no injury, 100 complete control) amounted to 0; with common pursiane (Rate 125 g/ha, Preemergence; 0 to 100 scale, 0 no injury, 100 complete control) it was 0; in the assay with common pursiane (Rate 500 g/ha, Preemergence; 0 to 100 scale) it was 65; with common pursiane (Rate 500 g/ha; Preemergence; 0 to 100 scale), 0. In addition, the “Plant response rating, Guineagrass” value with guineagrass (setting [1]), in the assay on guineagrass (setting [2]) and with guineagrass (Rate 500 g/ha) was 100 each time. In addition, the “Plant response rating, Com. groundsel” value with common groundsel (setting [1]) is 0; in the assay on common groundsel (setting [2]) it was 75; in the assay with common groundsel (Rate 500 g/ha), 100. Moreover, the “Spanishneedles plant response rating” value in the assay with Spanishneedles (Rate 64 g/ha) and with Spanishneedles (Rate 125 g/ha) was 0 throughout. Also, the “Plant response rating, Spanishneedles” value in the assay with Spanishneedles (Rate 500 g/ha) is reported as 0. Further, the “Plant response rating, P. morninglory” value is 0 in the assay on pitted morningglory (setting [1]), 20 in the assay with pitted morningglory (setting [2]) and 40 with pitted morningglory (Rate 500 g/ha).

Take `CC(C)N(C(=O)n1oc(=O)n(N(C)C)c1=O)c1ccccc1` [Compound 225]: the “Plant response rating, Velvetleaf” value in the assay on velvetleaf (Postemergence, Rate 1000 g/ha) came out at 3; in the assay with velvetleaf (Pre-emergence, Rate 2000 g/ha), 7. Also, the “Plant response rating, Crabgrass” value in the assay with crabgrass (Postemergence, Rate 1000 g/ha) is recorded as 9; in the assay with crabgrass (Pre-emergence, Rate 2000 g/ha) it was 10. The “Plant response rating, Morningglory” value in the assay with morningglory (Postemergence, Rate 1000 g/ha) came to 10; in the assay with morningglory (Pre-emergence, Rate 2000 g/ha), 8.

The values above are taken from patent publication US6737383B1, “Herbicidal oxadiazolidines” (priority 1999, dated 2004).
